How the values were obtained:
RAW264.7 cells [1] = assay: NO production induced by LPS and IFN-γ in RAW264.7 cells (NO2− in medium, Griess); type: cell-based; conditions: 10 μl of 5 mM oligosaccharide solution per 500 μl well, added 0.5 or 5 hours before LPS and IFN-γ; 12 hours; FIG. 1
Experimental: RAW264.7 cells (ATCC TIB 71) were suspended in Dulbecco's modified Eagle's medium (Bio Whittaker, 12-917F) without Phenol Red containing 10% fetal calf serum and 2 mM L-glutamine (Life Technologies Oriental, Code. 25030-149) at a concentration of 3×10^5 cells/ml. 500 μl of the suspension was added to each well of a 48-well microtiter plate and the plate was incubated at 37° C. for 6 hours in the presence of 5% CO2. 10 μl of a filter-sterilized oligosaccharide solution containing agarobiose, agarotetraose or agarohexaose prepared in Referential Example 1 at a concentration of 5 mM in water was added to the well. The plate was incubated for additional 0.5 or 5 hours. 10 μl of aqueous solution containing lipopolysaccharide (LPS, Sigma, Code. L-2012) at a concentration of 5 μg/ml and interferon-γ (IFN-γ, sold by Cosmobio, Code. GZM-MG-IFN) at a concentration of 2000 U/ml was added to the well. The plate was incubated for additional 12 hours. The concentration of […] resulting from oxidation of NO in the medium was then measured.
As control groups, a group to which LPS or IFN-γ was not added and a group to which agarobiose, agarotetraose or agarohexaose was not added were provided.
After cultivation, 100 μl of 4% Griess' reagent (Sigma, Code. G4410) was added to 100 μl of the culture supernatant, and the mixture was allowed to stand for 15 minutes at room temperature. The absorbance at 490 nm was then measured. NO2^− concentration in the medium was calculated with reference to a calibration curve prepared by using NaNO2 dissolved in the same medium at a predetermined concentration. All of the measurements were carried out in triplicate.

α-glucosidase = α-glucosidase inhibition with p-nitrophenyl-α-D-glucopyranoside; type: biochemical, S. cerevisiae
Experimental: (1) An α-glucosidase activity was measured by allowing α-glucosidase to act on p-nitrophenyl-α-D-glucopyranoside (a chromogenic substrate) and calorimetrically quantifying 4-nitrophenol released by hydrolysis.
10 μl of α-glucosidase solution [40 mU/ml, derived from S. cerevisiae, Sigma, dissolved in 10 mM phosphate buffer (pH 7.2 at 37° C.)] and 10 μl of a solution containing a test sample dissolved in 10 mM phosphate buffer (pH 7.2 at 37° C.) were mixed. 80 μl of a 1.5 mg/ml substrate solution [Sigma, dissolved in 10 mM phosphate buffer (pH 7.2 at 37° C.)] was added thereto to initiate the reaction. After reacting at 37° C. for 40 minutes, the absorbance at 410 nm was measured using Shimadzu uv2200. The remaining activity therein was calculated defining the activity observed without the addition of test sample as 100%.
Agarobiose, agarotetraose, agarohexaose and agarooctaose used as test samples were those prepared in Referential Example 1. Commercially available products of anhydrogalactose (Funakoshi), neoagarobiose (Sigma), neoagarotetraose (Funakoshi) and neoagarohexaose (Funakoshi) were used.

RAW264.7 cells [2] = assay: LPS-induced prostaglandin E2 production in RAW264.7 cells; type: cell-based; conditions: 10 μl of 5 mM solution per 500 μl well, 0.5 or 5 hours before LPS; 12 hours; FIG. 3
Experimental: RAW264.7 cells (ATCC TIB 71) were suspended in Dulbecco's modified Eagle's medium (Bio Whittaker, Code. 12-604F) containing 10% fetal calf serum at a concentration of 3×10^5 cells/ml. 500 μl of the suspension was added to each well of a 48-well microtiter plate and the plate was incubated at 37° C. for 6 hours in the presence of 5% CO2. 10 μl of a filter-sterilized agarooligosaccharide solution containing agarobiose, agarotetraose or agarohexaose prepared in Referential Example 1 at a concentration of 5 mM in water was added to the well. The plate was incubated for additional 0.5 or 5 hours. 10 μl of 50 μg/ml LPS aqueous solution was then added to the well. After the plate was incubated for additional 12 hours, the amount of prostaglandin E2 was measured. As control groups, a group to which LPS was not added and a group to which agarobiose, agarotetraose or agarohexaose was not added were provided.
After cultivation, the amount of prostaglandin E2 in the culture supernatant was measured using Prostaglandin E2 ELISA Kit (Neogen, Code. 404110). All of the measurements were carried out in triplicate.

HL-60 Nu cells = assay: TPA-induced intracellular peroxides in HL-60 Nu (neutrophil-like) cells; type: cell-based; conditions: 50 μl of 5 mM solution, 2 hours before TPA; 5 hours; FIG. 2
Experimental: HL-60 cells were added to RPMI 1640 medium (Bio Whittaker, Code. 12-702F) containing 10% fetal calf serum and 1.3% dimethyl sulfoxide (Dojindo Laboratories, Code. 346-03615) and cultured at 37° C. for 1 week in the presence of 5% CO2 to prepare cells differentiated into neutrophil-like cells (hereinafter referred to as HL-60 Nu).
Agarobiose, agarotetraose or agarohexaose obtained in Referential Example 1 was dissolved in water at a concentration of 5 mM. The solution was sterilized by filtration. HL-60 Nu cells were suspended in RPMI 1640 medium containing 10% fetal calf serum at a concentration of 2.5×10^5 cells/2.4 ml. 50 μl of one of the oligosaccharide aqueous solutions was added to a well containing the cells. The cells were cultured at 37° C. for 2 hours in the presence of 5% CO2. Then, 50 μl of a solution containing phorbol 12-myristate 13-acetate (TPA, Gibco, Code. 13139-019) at a concentration of 5 mg/ml in water was added the well. After the cells were cultured for additional 5 hours, intracellular peroxides were determined. As control groups, a group to which TPA was not added and a group to which agarobiose, agarotetraose or agarohexaose as not added were provided.
After cultivation, 10 μl of a solution containing 2′,7′-dichlorofluorescein diacetate (Sigma, Code. D6833) at a concentration of 5 mM in dimethyl sulfoxide was added to the well. The cells were cultured for additional 30 minutes. The cells were then collected by centrifugation and washed twice in phosphate buffered saline. 2′, 7′-dichlorofluorescein, which is generated in proportion to the amount of intracellular peroxides, was determined using FACScan as described in Saibo Kogaku, Bessatsu (Cell Technology, Suppl.) Jikken Protocol Series: Kassei Sanso Jikken Protocol (Experimental Protocol Series: Experimental Protocols for Active Oxigen) (1994, Shujun-sha) pp. 51-54.

Structure (SMILES): OCC1OC(OC2C3COC2C(O)C(OC2C(O)C(CO)OC(OC4C5COC4C(O)C(O)O5)C2O)O3)C(O)C(O)C1O (stereo not drawn) [Agarotetraose, agarotetraose]
- NO production induced by LPS and IFN-γ (RAW264.7 cells [1]): inhibited NO production induced by LPS and IFN-γ
- Activity of inhibiting α-glucosidase (% remaining activity) (α-glucosidase; 5 μM): 100%
- Activity of inhibiting α-glucosidase (% remaining activity) (α-glucosidase; 50 μM): 97%
- Activity of inhibiting α-glucosidase (% remaining activity) (α-glucosidase; 500 μM): 75%
- Activity of inhibiting α-glucosidase (% remaining activity) (α-glucosidase; 1000 μM): 32%
- Activity of inhibiting α-glucosidase (% remaining activity) (α-glucosidase; 5000 μM): 20%
- prostaglandin E2 production induced by LPS (RAW264.7 cells [2]): inhibited the prostaglandin E2 production induced by LPS
- TPA-induced generation of intracellular peroxides (HL-60 Nu cells): Slight inhibition

Structure (SMILES): OC[C@H]1O[C@@H](O[C@H]2[C@H]3OC[C@@H]2OC(O)[C@H]3O)[C@H](O)[C@@H](O)[C@H]1O (mixture of isomers) [Agarobiose, agarobiose]
- NO production induced by LPS and IFN-γ (RAW264.7 cells [1]): inhibited NO production induced by LPS and IFN-γ
- Activity of inhibiting α-glucosidase (% remaining activity) (α-glucosidase; 5 μM): 100%
- Activity of inhibiting α-glucosidase (% remaining activity) (α-glucosidase; 50 μM): 100%
- Activity of inhibiting α-glucosidase (% remaining activity) (α-glucosidase; 500 μM): 100%
- Activity of inhibiting α-glucosidase (% remaining activity) (α-glucosidase; 1000 μM): 100%
- Activity of inhibiting α-glucosidase (% remaining activity) (α-glucosidase; 5000 μM): 100%
- prostaglandin E2 production induced by LPS (RAW264.7 cells [2]): inhibited the prostaglandin E2 production induced by LPS
- TPA-induced generation of intracellular peroxides (HL-60 Nu cells): Slight inhibition

Structure (SMILES): OCC1OC(OC2C3COC2C(O)C(OC2C(O)C(CO)OC(OC4C5COC4C(O)C(OC4C(O)C(CO)OC(OC6C7COC6C(O)C(O)O7)C4O)O5)C2O)O3)C(O)C(O)C1O (stereo not drawn) [Agarohexaose, agarohexaose]
- NO production induced by LPS and IFN-γ (RAW264.7 cells [1]): inhibited NO production induced by LPS and IFN-γ
- Activity of inhibiting α-glucosidase (% remaining activity) (α-glucosidase; 5 μM): 91%
- Activity of inhibiting α-glucosidase (% remaining activity) (α-glucosidase; 50 μM): 91%
- Activity of inhibiting α-glucosidase (% remaining activity) (α-glucosidase; 500 μM): 47%
- Activity of inhibiting α-glucosidase (% remaining activity) (α-glucosidase; 1000 μM): 35%
- Activity of inhibiting α-glucosidase (% remaining activity) (α-glucosidase; 5000 μM): 7%
- prostaglandin E2 production induced by LPS (RAW264.7 cells [2]): inhibited the prostaglandin E2 production induced by LPS
- TPA-induced generation of intracellular peroxides (HL-60 Nu cells): inhibition of TPA-induced generation of intracellular peroxides was observed
